Test results as given in PubChem BioAssay AID743396 (Broad Institute, 2014).
Active and inactive are the calls of the source.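 The calls were made as follows: active = fitted curve reaches a 40% rise in fluorescent cells at or below the top valid dose; inactive = opposite-direction effect, or the rest.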

Assay: autofluorescent compounds in non-GFP fibroblasts, dose response, artefact control for X-chromosome reactivation project, imaging, mTEFS fibroblasts, cherry-pick (AID 743396);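 also: raw share of Hoechst-counted cells scored GFP positive without control normalization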
Details: mTEFS fibroblasts autofluorescence, GFP-channel imaging, 3 days; at 19.5 µM (top of the series); cells pretreated with 5-aza-dC

Compound	% fluorescent cells increase
CC(NC(=O)c1ccccc1)C(=O)N/N=C/c1ccccc1 (stereo not drawn)	0% (inactive)
CC(C)n1c(NCc2cc(Cl)ccc2O)nc2ccccc21	-0.007% (inactive)
CCC(C)c1nc2ccsc2c(N2CCOC2=O)c1-c1ccccc1 (stereo not drawn)	-0.011% (inactive)
[N-]=[N+]=CC(=O)C(O)(c1ccccc1)C(Cl)c1ccccc1 (stereo not drawn)	-0.007% (inactive)
COc1ccc2c(c1)C(C)=CC(C)(C)N2S(=O)(=O)c1ccc(Br)cc1	0% (inactive)
CC=Cc1ccc2n(c1=O)C[C@@H]1[C@@H](CO)[C@H](C(=O)NCCCN(C)C)[C@H]2N1C(=O)c1ccccc1F (mixture of isomers)	0.025% (inactive)
C[C@@H]1COc2cccc(NCCO)c2S(=O)(=O)N1	0% (inactive)
CC(Sc1nnc(-c2ccncc2)n1C)C(=O)Nc1ccc(N2CCOCC2)cc1 (stereo not drawn)	0% (inactive)
Cc1ccc(NC(=O)c2ccc(=O)[nH]c2)cc1S(=O)(=O)N1CCCCCC1	0.615% (inactive)
O=C(OCc1cccc(F)c1)c1ccc2c(=O)n3c(nc2c1)CCC3	0.065% (inactive)
CCCCOc1nc2ccccc2nc1NS(=O)(=O)c1ccc(F)cc1	0% (inactive)
O=S(=O)(Nc1cc(Sc2cccc3cccnc23)c(O)c2ccccc12)c1ccccc1	-0.003% (inactive)
CCC1Oc2ccc(C)cc2N(CC(=O)N2CCCC2)C1=O (stereo not drawn)	0.001% (inactive)
CN(Cc1nccn1C)C(=O)CC1C(=O)NCCN1CC(c1ccccc1)c1ccccc1 (stereo not drawn)	0.889% (inactive)
CS(=O)(=O)c1ccc(S(=O)CC(=O)OCc2ccccc2)c([N+](=O)[O-])c1 (stereo not drawn)	0% (inactive)
CO[C@H]1CN(C)C(=O)c2ccc(NC(=O)Cc3ccccc3)cc2OC[C@@H](C)N(C)C[C@H]1C	0% (inactive)
CC(C)c1ccc(N2C(=O)/C(=C/N(C)C)SC2=S)cc1	0.026% (inactive)
C[C@@H]1CN(C)C(=O)Cc2cc(N(C)C)ccc2O[C@@H]1CN(C)S(C)(=O)=O	0.125% (inactive)
Cc1cccn2c(=O)c3cc(C(=O)NCc4ccc(F)cc4)c(=N)n(CCCN4CCOCC4)c3nc12	0% (inactive)
COCCCn1c(C)cc(C(=O)COC(=O)CCc2nc3ccccc3c(=O)[nH]2)c1C	3.52% (inactive)
C[C@@H]1CCCCO[C@H](CN(C)Cc2ccc3c(c2)OCO3)[C@@H](C)CN([C@H](C)CO)C(=O)c2cc(NS(=O)(=O)c3ccc(F)cc3)ccc2O1	0.175% (inactive)

Compound	% fluorescent cells increase
Cc1ccnc(NS(=O)(=O)c2ccc3c(c2)CCO3)c1	0.175% (inactive)
COc1ccc(NC(=O)CCc2ccccc2)cc1S(=O)(=O)N1CCCCC1	0.183% (inactive)
COc1ccc(NC(=O)N(C)[C@H]2C[C@H]3c4[nH]c5ccc(-c6ccc(OC)cc6)cc5c4CCN3C(=O)[C@H]2[C@H](C)O)cc1	0.507% (inactive)
C/C=C/Cn1c(SCCCc2ccccc2)nc2c1c(=O)[nH]c(=O)n2C	-0.004% (inactive)
COc1ccc(OC)c(/C=C/c2ccc3cccc(O)c3n2)c1	-0.004% (inactive)
Cc1ccc(Nc2nc(N)nc(COC(=O)C3=COCCO3)n2)cc1	-0.007% (inactive)
COc1cc(NS(=O)(=O)c2ccc3ccccc3c2)c2ncccc2c1	0% (inactive)
Cc1ccc2[nH]c(C)c(/C=C/c3cc[n+](C)cc3)c2c1	8.78% (inactive)
O=C(COC(=O)c1cc(=O)[nH]c(=O)[nH]1)Nc1cccc(S(=O)(=O)N2CCCCC2)c1	0% (inactive)
COc1ccc(S(=O)(=O)Nc2ccc3c(c2)C(=O)N([C@@H](C)CO)C[C@H](C)[C@H](CN(C)C(=O)CCCN(C)C)OCCCC[C@H](C)O3)cc1	0.13% (inactive)
O=C(O)c1ccccc1C1Nc2ccccc2C(=O)N1CCCN1CCOCC1 (stereo not drawn)	-0.004% (inactive)
COc1ccccc1OCCOc1ccc(/C=C2\C(=N)N3N=C(S(C)(=O)=O)SC3=NC2=O)cc1	0% (inactive)
CC(=O)Nc1ccc(S(=O)(=O)N(C)c2ccc(OCC(=O)NCCc3ccccc3F)cc2)cc1	0.014% (inactive)
Cc1ccccc1NC(=O)c1c(C)[nH]c(=S)c(C#N)c1-c1ccc(Cl)cc1	0.031% (inactive)
CC(C)(C)[S@@](=O)N1Cc2cc(C(=O)N3CCCCC3)nc(-c3cccc(-c4cccc(C#N)c4)c3)c2[C@H]1CCO	0.101% (inactive)
Cn1c(=O)c(C#N)c(-c2ccc(F)cc2)c2cc(C(=O)c3cc(Cl)cc(Cl)c3O)cnc21	0.617% (inactive)
CC(=O)c1ccc(NC(=O)COC(=O)CCc2ccc(S(=O)(=O)N3CCOCC3)cc2)cc1	0.108% (inactive)
COc1ccc2c3c([nH]c2c1)[C@@H](CO)N(Cc1cc(F)ccc1F)CC31CCN(C(C)=O)CC1	0% (inactive)
CN(C)C=NC(=O)c1cc(C(=O)c2ccc(Cl)cc2Cl)c[nH]1	0.032% (inactive)
Cc1ccc(C(=O)NCc2ccccn2)cc1NC1=NC2CS(=O)(=O)CC2S1 (stereo not drawn)	0.061% (inactive)
CC1=NN(c2ccc(C)c(C)c2)C(=O)/C1=C\C=C\c1ccc([N+](=O)[O-])o1	-0.007% (inactive)

Compound	% fluorescent cells increase
COc1ccc(C2=C(c3ccccc3)OC(OC)c3cc(F)ccc32)cn1 (stereo not drawn)	0.033% (inactive)
Cc1ccc(-c2csc3nc4c5ccccc5c(NCCCN(C)C)nn4c(=O)c23)cc1	0% (inactive)
Oc1ccc(Br)cc1C=Nc1ccc2c3c(cccc13)CC2	3.42% (inactive)
COc1ccccc1C#Cc1ccc2c(c1)O[C@H](CN(C)Cc1cncnc1)[C@@H](C)CN([C@H](C)CO)S2(=O)=O	0% (inactive)
O=C(CC1C(=O)Nc2ccccc2N1CC(=O)N1CCCC1)Nc1ccc(Br)cc1 (stereo not drawn)	0% (inactive)
CCOc1ccc(C(=O)c2cc([N+](=O)[O-])ccc2N2CCOCC2)cc1	0% (inactive)
CC(C)Oc1ccc(/C(O)=C2/C(=O)C(=O)N(CCN(C)C)C2c2cccs2)cc1 (stereo not drawn)	0% (inactive)
O=[N+]([O-])c1ccccc1-c1ccc(C(=S)N2CCN(c3ccccc3)CC2)o1	0.237% (inactive)
O=C1C=CC(=O)C(CNc2ccc(C(=O)OCc3ccccc3)cc2)=C1	0% (inactive)
O=C(CCl)N=c1sccn1Cc1cccc2ccccc12	9.31% (inactive)
Oc1c(C(c2ccccc2Cl)N2CCCC2)ccc2cccnc12 (stereo not drawn)	0% (inactive)
C=CCn1c(=S)[nH]c2scc(-c3ccco3)c2c1=O	0% (inactive)
O=C(C[C@H]1CC[C@H]2[C@@H](COC[C@@H](O)CN2C(=O)Nc2ccccc2)O1)NCCc1ccncc1	0.044% (inactive)
N/C(=N\c1nc(CSc2nc3ccccc3s2)cc(=O)[nH]1)Nc1ccc(F)cc1	2.21% (inactive)
N=c1ccn2c(n1)OC1C(O)C(CO)OC12 (stereo not drawn)	-0.006% (inactive)
COc1ccc(C)c(-n2c(=O)n(Cc3ccccc3)c(=O)c3[nH]cnc32)c1	0.074% (inactive)
CN(C)S(=O)(=O)c1cccc(C(=O)NCC2(N3CCOCC3)CCCCC2)c1	0.019% (inactive)
COc1cc(/C=C/c2ccc3cccc(O)c3n2)cc(OC)c1OC	0% (inactive)
COc1ccccc1/C=C/C(=O)OCC(=O)NC(=O)NC1CCCC1	0% (inactive)
Cn1cc(/C=C/c2cc[n+](C)cc2)c2cc(Cl)ccc21	6.85% (inactive)
CCN(CC)CCCN=Cc1c(O)n(-c2cccc(C)c2)c(=O)c2ccccc12	-0.011% (inactive)

Compound	% fluorescent cells increase
COc1ccccc1-c1ccc(/C=N/O)o1	0% (inactive)
C[C@@H]1CN([C@@H](C)CO)C(=O)c2ccccc2-c2ccccc2CO[C@@H]1CN(C)C(=O)Nc1ccc2c(c1)OCO2	-0.044% (inactive)
CN(C)CC(=O)N1CC2(C1)[C@@H](c1ccccc1)[C@H](CO)N2C(=O)C1CC1	-0.147% (inactive)
COc1ccc(/C=c2/sc3nc(-c4ccccc4)c(-c4ccccc4)n3c2=O)cc1	0.085% (inactive)
CCCCn1nnnc1C(c1ccccc1)N1CCN(c2ccc(C)cc2)CC1 (stereo not drawn)	-0.003% (inactive)
CC1=Nc2ccccc2/C1=C\c1sc(Nc2ccc(C)cc2)nc1O	0.199% (inactive)
COc1ccccc1CNC(=O)COC(=O)COc1ccccc1F	1.84% (inactive)
COc1cccc(-c2ccc(C3[C@@H]4CN(C(=O)C5CCCCC5)C[C@H]3N4)cc2)c1 (stereo partly drawn)	0% (inactive)
O=c1[nH]nc(SCCS(=O)(=O)c2ccc(F)cc2)n1-c1ccccc1C(F)(F)F	-0.004% (inactive)
CC(O)(c1ccccc1)c1nc(-c2ccncc2)cs1 (stereo not drawn)	0.38% (inactive)
O=C(CSc1nc2ccccc2[nH]1)N/N=C/C=C/c1ccccc1[N+](=O)[O-]	0.094% (inactive)
CCOC(=O)c1cnc(-c2ccc(C(F)(F)F)cn2)[nH]c1=O	11.4% (inactive)
CCCN1CCN(C(=O)C2CCN(c3nnc(C)c4c(C)n(-c5ccc(C)cc5)nc34)CC2)CC1	0.895% (inactive)
COc1ccc(-n2ncc(Cl)c(Cl)c2=O)cc1	0% (inactive)
COc1ccc2c3c([nH]c2c1)[C@H](CO)N(C(=O)C1CCCC1)CC31CN(Cc2nccs2)C1	0.113% (inactive)
Cc1ccc(-c2csc(NC(=O)c3cccc([N+](=O)[O-])c3C(=O)O)n2)cc1	0% (inactive)
Nc1ccccc1Sc1ccc(C(F)(F)F)cc1[N+](=O)[O-]	0% (inactive)
Cc1cccc(-c2ccc([C@H]3[C@H](CO)N4CCCCN(C(=O)NC(C)C)C[C@@H]34)cc2)c1	-0.166% (inactive)
O=C(O)/C=C/C(=O)Nc1ccc(-n2nccc2C(F)(F)F)cc1	1.85% (inactive)
CSc1ccc(CN2C(=O)NC3(CCCCCCC3)C2=O)cc1	-0.004% (inactive)
